The values that follow are results of earlier work, collected in EP0580641B1, “NEW THALIDOMIDE DERIVATIVES, METHOD OF MANUFACTURE AND USE THEREOF IN MEDICAMENTS” (Grünenthal GmbH, priority 1991, dated 1992).

The conditions of the data set: cited from Arch. Pharm. 321, 371 (1988).

For `O=C1CCC(N2C(=O)c3ccccc3C2=O)C(=O)N1` (stereo not shown) [Thalidomid, 3-Phthalimido-piperidin-2,6-dion], the Wasserlöslichkeit was 0,012 mg/ml.
